Laboratory results taken from ChEMBL document CHEMBL1137193, “Discovery of new chemical leads for prostaglandin D2 receptor antagonists” (Bioorg Med Chem Lett, 2004).

Columns and labels:
[1] = molecular target: Prostaglandin E2 receptor EP2 subtype (Mus musculus, UniProt Q62053); test: Binding affinity for mouse Prostanoid EP2 receptor
[2] = molecular target: T1, Prostaglandin E2 receptor EP1 subtype (Mus musculus, UniProt P35375); test: Binding affinity for mouse Prostanoid EP1 receptor
T1 sequence (P35375 whole entry): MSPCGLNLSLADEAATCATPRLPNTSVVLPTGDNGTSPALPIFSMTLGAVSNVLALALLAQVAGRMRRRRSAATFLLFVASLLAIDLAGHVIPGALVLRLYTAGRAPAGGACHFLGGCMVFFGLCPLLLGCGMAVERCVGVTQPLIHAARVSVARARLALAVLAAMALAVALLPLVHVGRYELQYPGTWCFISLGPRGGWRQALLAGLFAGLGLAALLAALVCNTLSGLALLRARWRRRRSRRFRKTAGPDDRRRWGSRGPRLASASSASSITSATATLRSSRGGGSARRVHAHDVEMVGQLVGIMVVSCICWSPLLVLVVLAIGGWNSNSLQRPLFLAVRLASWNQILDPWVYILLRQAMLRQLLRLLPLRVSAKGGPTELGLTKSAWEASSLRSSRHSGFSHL

[3] = molecular target: T2, Prostaglandin D2 receptor (Mus musculus, UniProt P70263); test: Binding affinity for mouse Prostanoid DP receptor
T2 sequence (P70263 whole entry): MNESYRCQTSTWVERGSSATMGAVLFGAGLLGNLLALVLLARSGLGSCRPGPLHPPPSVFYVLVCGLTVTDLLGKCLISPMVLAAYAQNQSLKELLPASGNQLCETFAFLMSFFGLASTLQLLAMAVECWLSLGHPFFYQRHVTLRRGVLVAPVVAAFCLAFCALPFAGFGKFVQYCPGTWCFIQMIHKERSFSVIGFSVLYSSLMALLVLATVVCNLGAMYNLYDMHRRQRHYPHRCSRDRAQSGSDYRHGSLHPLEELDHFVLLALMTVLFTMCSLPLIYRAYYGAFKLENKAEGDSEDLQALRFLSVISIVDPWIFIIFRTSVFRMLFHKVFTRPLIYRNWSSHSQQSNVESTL

[4] = molecular target: T3, Prostaglandin E2 receptor EP3 subtype (Mus musculus, UniProt P30557); test: Binding affinity for mouse Prostanoid EP3 receptor
T3 sequence (P30557 whole entry): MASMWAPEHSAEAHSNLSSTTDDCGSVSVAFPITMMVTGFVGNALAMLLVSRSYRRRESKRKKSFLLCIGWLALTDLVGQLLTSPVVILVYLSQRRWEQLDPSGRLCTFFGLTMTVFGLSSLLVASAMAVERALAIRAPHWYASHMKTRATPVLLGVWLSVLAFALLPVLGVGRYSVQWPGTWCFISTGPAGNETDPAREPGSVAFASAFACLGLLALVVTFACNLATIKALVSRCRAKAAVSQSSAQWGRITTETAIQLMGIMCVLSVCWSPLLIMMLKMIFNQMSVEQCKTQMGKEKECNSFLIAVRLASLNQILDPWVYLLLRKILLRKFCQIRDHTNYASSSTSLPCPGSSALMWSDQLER

[5] = molecular target: T2, Prostaglandin D2 receptor; test: Inhibition of mouse Prostanoid DP receptor
[6] = molecular target: Prostaglandin E2 receptor EP4 subtype (Mus musculus, UniProt P32240); test: Binding affinity for mouse Prostanoid EP4 receptor
Chain of Prostaglandin E2 receptor EP4 subtype (P32240 whole entry): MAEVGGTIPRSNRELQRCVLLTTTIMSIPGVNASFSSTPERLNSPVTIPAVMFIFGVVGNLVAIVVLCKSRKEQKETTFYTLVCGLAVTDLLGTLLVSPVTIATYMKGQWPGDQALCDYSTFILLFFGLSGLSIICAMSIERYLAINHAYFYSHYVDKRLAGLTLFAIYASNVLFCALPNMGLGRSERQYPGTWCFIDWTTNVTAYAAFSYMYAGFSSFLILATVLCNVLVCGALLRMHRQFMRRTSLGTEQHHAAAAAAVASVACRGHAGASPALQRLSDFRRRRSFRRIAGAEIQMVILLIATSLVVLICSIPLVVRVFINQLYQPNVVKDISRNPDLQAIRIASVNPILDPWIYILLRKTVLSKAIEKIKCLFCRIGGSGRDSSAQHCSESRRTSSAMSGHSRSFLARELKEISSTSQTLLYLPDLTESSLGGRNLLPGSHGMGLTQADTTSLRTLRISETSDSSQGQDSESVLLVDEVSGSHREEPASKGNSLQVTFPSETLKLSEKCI

Chain of Prostaglandin E2 receptor EP2 subtype (Q62053 whole entry): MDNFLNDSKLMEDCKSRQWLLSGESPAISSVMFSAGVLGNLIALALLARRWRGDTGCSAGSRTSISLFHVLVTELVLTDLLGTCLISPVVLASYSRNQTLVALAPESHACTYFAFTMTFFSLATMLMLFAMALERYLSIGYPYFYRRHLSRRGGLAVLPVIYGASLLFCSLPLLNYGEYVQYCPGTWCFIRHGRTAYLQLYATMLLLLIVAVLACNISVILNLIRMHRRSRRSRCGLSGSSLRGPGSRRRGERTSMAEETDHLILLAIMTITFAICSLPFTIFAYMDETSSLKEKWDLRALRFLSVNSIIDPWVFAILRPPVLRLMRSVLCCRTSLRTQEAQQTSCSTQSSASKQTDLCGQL

SMILES | Ki [1] [µM] | Ki [2] [µM] | Ki [3] [µM] | Ki [4] [µM] | IC50 [5] [µM] | Ki [6] [µM]
CCCCOc1ccc(C(=O)n2c(C)c(C(=O)O)c3cc(OC)ccc32)cc1 | > 10 | > 10 | 0.94 | > 10 | 4 | > 10
CCCCOc1ccc(C(=O)n2cc(CC(=O)O)c3cc(OC)ccc32)cc1 | 8.9 | > 10 | 2.2 | > 10 | – | > 10
COc1ccc2c(c1)c(CC(=O)O)c(C)n2C(=O)c1ccc(Cl)cc1 [INDOMETHACIN] | > 10 | > 10 | > 10 | > 10 | > 10 | > 10
CCCCOc1ccc(C(=O)n2c(C)c(CCCCC(=O)O)c3cc(OC)ccc32)cc1 | 5.2 | > 10 | 0.4 | > 10 | 4.5 | 4.2
CCCCOc1ccc(C(=O)n2c(C)c(CCC(=O)O)c3cc(OC)ccc32)cc1 | 5.7 | > 10 | 0.28 | > 10 | 1.5 | 3

Continued, values first:

Ki [1] [µM] | Ki [2] [µM] | Ki [3] [µM] | Ki [4] [µM] | IC50 [5] [µM] | Ki [6] [µM] | SMILES
3.3 | > 10 | 1.9 | > 10 | > 10 | > 10 | CCCCOc1ccc(C(=O)n2c(C)c(CC(=O)O)c3cc(O)ccc32)cc1
1.7 | > 10 | 0.41 | > 10 | 2.5 | > 10 | CCCCOc1cccc(C(=O)n2c(C)c(CC(=O)O)c3cc(OC)ccc32)c1
2.7 | > 10 | 0.19 | 2.4 | 0.91 | 1.5 | CCCCOc1ccc(C(=O)n2c(C)c(CCCC(=O)O)c3cc(OC)ccc32)cc1
2.9 | 3.8 | 1.5 | > 10 | – | > 10 | CCCCOc1ccc(C(=O)n2c(CC)c(CC(=O)O)c3cc(OC)ccc32)cc1
2.1 | 5.2 | 0.11 | > 10 | 3.9 | > 10 | CCCCOc1ccc(C(=O)n2c(C)c(CC(=O)O)c3ccccc32)cc1
4.7 | > 10 | 0.27 | > 10 | 1.6 | > 10 | CCCCOc1ccc(C(=O)n2c(C)c(CC(=O)O)c3cc(OC)ccc32)cc1
> 10 | 6.5 | > 10 | > 10 | – | > 10 | CCCCOc1ccccc1C(=O)n1c(C)c(CC(=O)O)c2cc(OC)ccc21
1.7 | 5 | 0.15 | > 10 | 2.9 | 2.2 | CCCCOc1ccc(C(=O)n2c(C)c(CC(=O)O)c3cc(C)ccc32)cc1
